{"source": "patent US20040039022A1", "about": "“NMDA receptor agonist pharmaceutical compositions” (Pfizer Inc., priority 2000, published 2004)", "format_in_all_cases": "physicochemical", "key": {"[1]": {"assay": "Maximum solubility of the Compound", "conditions": "at 5° C.", "description": "A preferred presentation of the composition aspects of the invention comprises the Compound at a concentration of 10 mgA/mL. This concentration is near the maximum solubility of the Compound (about 12 mgA/mL at 5° C.). The preferred solution of the composition is 10 mM lactate buffer. However, those skilled in the art will appreciate that buffer solutions of other anions may be used, including, but not limited to, buffer solutions of the anions acetate, citrate, tartrate and formate."}, "[2]": {"assay": "pH of buffered 10 mgA/ml formulations of the Compound at 70° C.", "description": "Table 2 exemplifies the use of various buffers to stabilize the pH of formulations containing 10 mgA/ml of the Compound. [table]"}, "[3]": {"assay": "pH shift of aqueous formulations (water only; terminal sterilization of lactate buffered formulation)", "description": "Aqueous solutions of the Compound are susceptible to pH shift. […] When the Compound is formulated with only water, the pH of the formulation increases above 5. This pH shift results in conditions favorable to the oxidative degradation reaction, thus accelerating the degradation of the aqueous formulation. The increase in pH also decreases the solubility of the compound, thereby increasing the possibility of precipitation out of solution. Vials are preferably sterilized by terminal sterilization methods employing an autoclave. Preferably, sterilization is for 8 minutes at 121° C. Sterilization may cause a slight shift of pH. In the lactate buffered formulation, pH shifted slightly down. In order to achieve a mid-point in the preferred pH range, the initial pH is preferably set to 4.5. The terminal sterilization cycle reduces the pH to about 4.2. The pH of the initial formulation is set at pH 4.5 to accommodate the slight pH down-shifting upon terminal sterilization. […] Sodium hydroxide and hydrochloric acid are used as needed to adjust the solution to the desired pH."}}}
{"smiles": "C[C@@H]([C@@H](O)c1ccc(O)cc1)N1CCC(O)(c2ccccc2)CC1", "note": "[Compound, (1S,2S)-1-(4-Hydroxyphenyl)-2-(4-hydroxy4-phenylpiperidin-1-yl)-1-propanol]", "values": [{"measurement": "maximum solubility", "setting": "[1]", "result": "about 12 mgA/mL"}, {"measurement": "pH at 70° C.", "setting": "[2]; 3 mM lactate, 2 days", "result": 4.21}, {"measurement": "pH at 70° C.", "setting": "[2]; 3 mM lactate, 7 days", "result": 4.20}, {"measurement": "pH at 70° C.", "setting": "[2]; 3 mM lactate, 21 days", "result": 4.14}, {"measurement": "pH at 70° C.", "setting": "[2]; 3 mM lactate, Initial (post-TS)", "result": 4.24}, {"measurement": "pH at 70° C.", "setting": "[2]; 10 mM acetate, 4 days", "result": 4.14}, {"measurement": "pH at 70° C.", "setting": "[2]; 10 mM acetate, 7 days", "result": 4.14}, {"measurement": "pH at 70° C.", "setting": "[2]; 10 mM acetate, 21 days", "result": 4.17}, {"measurement": "pH at 70° C.", "setting": "[2]; 10 mM acetate, Initial (post-TS)", "result": 4.16}, {"measurement": "pH at 70° C.", "setting": "[2]; 10 mM benzoate, 4 days", "result": 4.16}, {"measurement": "pH at 70° C.", "setting": "[2]; 10 mM benzoate, 7 days", "result": 4.20}, {"measurement": "pH at 70° C.", "setting": "[2]; 10 mM benzoate, Initial (post-TS)", "result": 4.21}, {"measurement": "pH at 70° C.", "setting": "[2]; 10 mM citrate, 2 days", "result": 4.16}, {"measurement": "pH at 70° C.", "setting": "[2]; 10 mM citrate, 7 days", "result": 4.17}, {"measurement": "pH at 70° C.", "setting": "[2]; 10 mM citrate, 21 days", "result": 4.11}, {"measurement": "pH at 70° C.", "setting": "[2]; 10 mM citrate, Initial (post-TS)", "result": 4.16}, {"measurement": "pH at 70° C.", "setting": "[2]; 10 mM formate, 2 days", "result": 4.18}, {"measurement": "pH at 70° C.", "setting": "[2]; 10 mM formate, 7 days", "result": 4.16}, {"measurement": "pH at 70° C.", "setting": "[2]; 10 mM formate, 21 days", "result": 4.13}, {"measurement": "pH at 70° C.", "setting": "[2]; 10 mM formate, Initial (post-TS)", "result": 4.17}, {"measurement": "pH at 70° C.", "setting": "[2]; 10 mM tartrate, 2 days", "result": 4.17}, {"measurement": "pH at 70° C.", "setting": "[2]; 10 mM tartrate, 7 days", "result": 4.17}, {"measurement": "pH at 70° C.", "setting": "[2]; 10 mM tartrate, 21 days", "result": 4.07}, {"measurement": "pH at 70° C.", "setting": "[2]; 10 mM tartrate, Initial (post-TS)", "result": 4.15}, {"measurement": "pH of the formulation", "setting": "[3]; Compound formulated with only water", "result": "above 5"}, {"measurement": "pH after terminal sterilization cycle", "setting": "[3]; lactate buffered formulation, initial pH 4.5, autoclave 8 minutes at 121° C.", "result": "about 4.2"}]}
